# Reference: US20240165200A1, “CATH2 AND DERIVATIVES FOR INHIBITING STREPTOCOCCUS SUIS” (Universiteit Utrecht Holding B.V., priority 2021, published 2024)
# Where a SMILES comes first, the peptide text is derived from it. [ ]: non-standard residue; d: D form.
# Experiments:
# [1] = test system: 4 different S. suis serotype 2 strains; assay: Colony count assay (MBC), summary over the four strains; format: cell-based, Streptococcus suis; settings: four sub-strains, RPMI+10% FCS medium
# Protocol: FIG. 1: D-CATH2 and its derivatives efficiently kills several S. suis type2 strains in both THB and RPMI+FCS. Antibacterial activity of D-CATH2 and its derivatives against 10^6 CFU ml^−1 S. suis type 2 strains (P1/7, D282, 5735, and OV625) was tested using a colony count assay in both THB medium (A) and RPMI+FCS (B). 2 log CFU mL^−1 was set as detection limit for the experiment. Data is plotted as average +/−SEM (N=3-4).
# S. suis Serotype 2 strains P1/7, D282, S735, and OV625 were grown into mid-logarithmic phase for 3-4 hours at 37° C. in THB, after which bacteria were centrifuged at 1200×g for 10 minutes at 4° C. and resuspended in fresh THB. Concentration was determined by measuring the OD value at 620 nm with an OD of 0.1 is 1×10^8 colony forming units (CFU) mL^−1. 10^6 CFU mL^−1 S suis was mixed with different concentrations of D-CATH and derivatives (0.63−40 μM) and left for 3 hours at 37° C. Ten-fold dilutions were prepared and spread in Tryptan Soy agar (TSA) plates containing 5% (vol/vol) defibrinated sheep blood (Oxoid) and colonies were allowed to grow for 48 hours. Minimal Bactericidal Concentration (MBC) was defined as ≤100 CFU mL^−1 (2 logCFU mL^−1), the detection limit of the assay.
# [2] = Isothermal titration calorimetry (ITC) of peptide binding to LTA-SA; set-up: species or system S. aureus; settings: 200 μM peptide titrated into LTA-SA, 37° C., dPBS; read-out: Kd (dissociation coefficient)
# Protocol: Thermodynamic binding capacity of 200 μM D-CATH2 (A), DC(1-21) (B), and DC(4-21) (C) to 200 μM LTA-SA was measured using isothermal titration calorimetry (ITC). Every 300 seconds, 1.99 μl peptide solution was titrated into 164 μl LTA solution. The corrected heat rate (μJ sec^−1) is plotted (top panel) and normalized integrated heat was plotted against the molar ratio between LTA and the peptide (lower panel). Experiments (N=3) were averaged before plotting and fitting an independent model. The corrected heat rate of D-CATH2, DC(1-21), and DC(4-21) is depicted for comparison (D).
# The interaction between the D-CATH2 peptides and LTA-SA was tested using isothermal titration calorimetry (ITC). All ITC experiments were performed on a Low Volume NanoITC (TA instruments-Waters LLC, New Castle, USA). 800 μM of LTA-SA or peptide solution was prepared in MilliQ after which a 4-fold dilution in dPBS (Gibco) was made. The chamber was filled with 164 μl LTA-SA and the peptide was loaded in the syringe. Every 300 seconds, 1.99 μL peptide was titrated into the chamber at 37° C. Data was analyzed using the Nano Analyze software (TA instruments-Waters LLC). The data of three experiments was averaged and an independent model was used to determine the peptide-LTA interaction.
# [3] = test system: murine macrophage cell-line; settings: biological form of CATH2; cited from earlier work
# [4] = test system: murine BMDMs; format: cell-based, mouse
# Protocol: FIG. 2: Peptide titration on BMDM and BMDCs for cytotoxicity and expression of cell markers. Mouse BMDM (A, C, E, G) and BMDCs (B, D, F, H) were cultured for 6 days with […]. Different concentrations were added at day 6 (A, B, E, F) or the cells were primed with different concentrations peptides at day 1-2 (C, D, G, H). At day 7, cell viability was tested using WST-1 reagent, with no-peptide-control set to 100% viability (A-D) and cells were analyzed by flowcytometry for cell marker expression (E-H). Results are depicted as mean +/−S.E.M. (n=3).
# Bone marrow cells, isolated from the femur and tibia of both hindlegs, were stored in FCS/10% DMSO in liquid nitrogen. Cells were grown at a concentration of 5×10^5 cells mL^−1 in RPMI-1640 without phenol red (Thermo Fisher Scientific, MA, USA) supplemented with 10% fetal calf serum (FCS) (Corning, NY, USA) and 1% Penicillin/streptomycin (Thermo Fisher Scientific). […] Cells were stained with antibodies (table 1) for 20 minutes, washed and measured using the BD FACSCanto-II (BD bioscience) and analyzed with FlowJo software (Ashland, OR, USA).
# WST-1 reagent (roche) was used for cell viability of BMDCs and BMDM as well as for cell activity of activated splenocytes. […] After 30-60 minutes, colorimetric changes were measured at 450 nm using a FLUOstar Omega microplate reader (BMG Labtech GmbH, Ortenberg, Germany). […]
molecule,measurement,setting,value
"CC[C@@H](C)[C@@H](NC(=O)[C@@H](CCCCN)NC(=O)[C@@H](CCCNC(=N)N)NC(=O)[C@@H](CC(C)C)NC(=O)[C@@H](Cc1ccccc1)NC(=O)[C@H](N)CCCNC(=N)N)C(=O)N[C@H](CCCNC(=N)N)C(=O)N[C@H](CCCNC(=N)N)C(=O)N[C@H](Cc1ccccc1)C(=O)N[C@H](CCCNC(=N)N)C(=O)N1CCC[C@@H]1C(=O)N[C@H](CCCCN)C(=O)N[C@@H](C(=O)N[C@@H](C(=O)N[C@@H](C(=O)N[C@@H](C(=O)N[C@@H](C(=O)N[C@H](CCC(N)=O)C(N)=O)[C@H](C)CC)[C@H](C)O)[C@H](C)CC)[C@H](C)O)C(C)C [DC(4-21), RFLRKIRRFRPKVTITIQ-NH2] (H-[dR][dF][dL][dR][dK][dI][dR][dR][dF][dR][dP][dK][dV][dT][dI][dT][dI][dQ]-NH2; N-terminus assumed)",MBC,[1],2.5 µM
same,Kd,[2],2120 nM
"RFGRFLRKIRRFRPKVTITIQGSARFG [CATH2, chicken cathelicidin-2, 27 amino acid C-terminal peptide]",LPS and LTA activation,[3],inhibit
CC[C@@H](C)[C@@H](NC(=O)[C@@H](CCCCN)NC(=O)[C@@H](CCCNC(=N)N)NC(=O)[C@@H](CC(C)C)NC(=O)[C@@H](Cc1ccccc1)NC(=O)[C@@H](CCCNC(=N)N)NC(=O)CNC(=O)[C@@H](Cc1ccccc1)NC(=O)[C@H](N)CCCNC(=N)N)C(=O)N[C@H](CCCNC(=N)N)C(=O)N[C@H](CCCNC(=N)N)C(=O)N[C@H](Cc1ccccc1)C(=O)N[C@H](CCCNC(=N)N)C(=O)N1CCC[C@@H]1C(=O)N[C@H](CCCCN)C(=O)N[C@@H](C(=O)N[C@@H](C(=O)N[C@@H](C(=O)N[C@@H](C(=O)N[C@@H](C(=O)N[C@H](CCC(N)=O)C(=O)NCC(=O)N[C@H](CO)C(=O)N[C@H](C)C(=O)N[C@H](CCCNC(=N)N)C(=O)N[C@H](Cc1ccccc1)C(N)=O)[C@H](C)CC)[C@H](C)O)[C@H](C)CC)[C@H](C)O)C(C)C [D-CATH2],cell viability of BMDMs,[4],relative sensitive
CC[C@@H](C)[C@@H](NC(=O)[C@@H](CCCCN)NC(=O)[C@@H](CCCNC(=N)N)NC(=O)[C@@H](CC(C)C)NC(=O)[C@@H](Cc1ccccc1)NC(=O)[C@@H](CCCNC(=N)N)NC(=O)CNC(=O)[C@@H](Cc1ccccc1)NC(=O)[C@H](N)CCCNC(=N)N)C(=O)N[C@H](CCCNC(=N)N)C(=O)N[C@H](CCCNC(=N)N)C(=O)N[C@H](Cc1ccccc1)C(=O)N[C@H](CCCNC(=N)N)C(=O)N1CCC[C@@H]1C(=O)N[C@H](CCCCN)C(=O)N[C@@H](C(=O)N[C@@H](C(=O)N[C@@H](C(=O)N[C@@H](C(=O)N[C@@H](C(=O)N[C@H](CCC(N)=O)C(N)=O)[C@H](C)CC)[C@H](C)O)[C@H](C)CC)[C@H](C)O)C(C)C [DC(1-21)],cell viability of BMDMs,[4],especially
